Assay results taken from patent US4372971A, “Heterocyclic prostaglandin type compounds, medicaments containing them and processes for the preparation and use of these heterocyclic compounds and medicaments” (priority 1980, dated 1983).
Structures can show the parent of a compound that is named as a salt. Where two headings read alike, the source gives them in different places. Blank lines part the entries; values can stand above or below the compound they belong to.

How the values were obtained:
blood pressure = assay: Blood pressure lowering in conscious, spontaneous hypertensive rats; type: in vivo, rat; settings: for Relative blood pressure lowering activity: relative to 5,6-dihydroprostacyclin = 1.0; for Effect in relation to maximum effect, 10 min. after administration (blood pressure lowering) / Effect in relation to maximum effect, 30 min. after administration (blood pressure lowering): maximum effect = 100%
Excerpt: (§1) Surprising for the compounds according to the invention is the relation of their blood platelet aggregation inhibiting effect to their blood pressure lowering activity.
Relative blood pressure lowering activity in
conscious, spontaneous hypertensive rats (measurement
via in-dwelling catheter; intravenous administration
of the test compounds; the ED20 for 5,6-dihydroprosta-
cyclin under these experimental conditions is 0.005
Duration of the blood pressure lowering effect
in conscious, spontaneous hypertensive rats (intra-

[1] = system: platelet aggregation versus blood pressure; assay: Index of selectivity: platelet aggregation inhibition versus blood pressure lowering (from Tables 1b and 1c); type: in vivo, rat; settings: for Index of selectivity: in comparison to 5,6-dihydroprostacyclin, calculated from Tables 1b and 1c
Excerpt: as §1
in comparison to 5,6-dihydroprostacyclin (calculated

isolated rat uterus = assay: Contraction inducing activity on isolated rat uterus; settings: Prostaglandin F2α = 100%
Excerpt: (§2) Relative contraction inducing activities
(a) tests on isolated rat uterus

[2] = system: ADP induced fall in platelet count; assay: ADP induced fall in platelet count in-vivo in narcotized rats; parameters: species or system rat; settings: for Maximum effect % Aggregation inhibition / Relative activity on the ADP induced fall in platelet count in-vivo: narcotized rats; for Effect in relation to maximum effect, 10 min. after administration (aggregation inhibition) / Effect in relation to maximum effect, 30 min. after administration (aggregation inhibition): maximum effect = 100%; for Relative activity on the ADP induced fall in platelet count in-vivo: relative to 5,6-dihydroprostacyclin = 1.0
Method: as §1
Relative activity on the ADP induced fall
in platelet count in-vivo in narcotized rats (urethane
narcosis; intravenous administration of the test
compounds; the ED50 for 5,6-dihydroprostacyclin under
these experimental conditions is 0.0114 mg/kg):
Duration of the platelet aggregation inhibiting
effect in-vivo (measured with the model of ADP induced
fall in platelet count in narcotized rats on intra-
venous administration of the test compounds)

isolated rat colon = assay: Contraction inducing activity on isolated rat colon; settings: Prostaglandin F2α = 100%
Excerpt: as §2
(b) tests on isolated rat colon

human thrombocytes = assay: Inhibition of arachidonic acid induced aggregation of human thrombocytes in-vitro; type: cell-based; settings: for Relative activity against the aggregation of human thrombocytes induced by arachidonic acid: relative to 5,6-dihydroprostacyclin = 1.0
Excerpt: Relative activity against the aggregation
of human thrombocytes induced by arachidonic acid
in-vitro (the IC50, i.e., the concentration causing
under the experimental conditions in 50% of the cases
inhibition of the platelet aggregation for 5,6-di-

[3] = system: smooth muscle of the intestine and uterus; settings: cited from earlier work; for Smooth muscle contraction: intestine and uterus
[4] = background; cited from earlier work
[5] = system: platelet aggregation versus blood pressure; settings: background; cited from earlier work
[6] = system: ADP induced fall in platelet count; settings: background statement; also blood pressure lowering; cited from earlier work
Chemical stability = type: physicochemical
[7] = conscious spontaneous hypertensive rats, intravenous

SMILES: CCCCC[C@](C)(O)/C=C/[C@@H]1[C@H]2C/C(=C/c3cccc(C(=O)O)c3)O[C@H]2C[C@H]1O [Example 1e)i), Sodium salt of [(5Z, 13E, 9α, 11α, 15S)-2,3,4-trinor-1,5-inter-m-phenylene-6,9-epoxy-11,15-dihydroxy-15-methyl]-prosta-5,13-dienoic acid]
Relative blood pressure lowering activity (blood pressure; [7]): 0.1 | Index of selectivity [1]: 13.0 | Relative contraction inducing activity (isolated rat uterus): 0.58% | Maximum effect % Aggregation inhibition ([2]; 1.0 mg/kg intravenous): 72.7% | Effect in relation to maximum effect, 10 min. after administration (aggregation inhibition) ([2]; 1.0 mg/kg intravenous): 69.3% | Effect in relation to maximum effect, 30 min. after administration (aggregation inhibition) ([2]; 1.0 mg/kg intravenous): 41.3% | Relative activity on the ADP induced fall in platelet count in-vivo ([2]; intravenous): 1.3 | Relative contraction inducing activity (isolated rat colon): 0.002% | Relative activity against the aggregation of human thrombocytes induced by arachidonic acid (human thrombocytes; in-vitro): 0.86

SMILES: CCCCC[C@H](O)/C=C/[C@@H]1[C@@H](C/C=C\CCCC(=O)O)[C@@H](O)C[C@H]1O [Prostaglandin F2α]
Side effects in-vivo [3]: may induce diarrhea and abortion | Smooth muscle contraction [3]: cause contraction of the smooth muscle of the intestine and uterus | Relative contraction inducing activity (isolated rat uterus): 100% | Relative contraction inducing activity (isolated rat colon): 100%

SMILES: CCCCC[C@H](O)/C=C/[C@@H]1[C@H]2C/C(=C\c3cccc(C(=O)O)c3)O[C@H]2C[C@H]1O [Example 2a, Sodium salt of [(5E, 13E, 9α, 11α, 15S)-2,3,4-trinor-1,5-inter-m-phenylene-6,9-epoxy-11,15-dihydroxy]-prosta-5,13-dienoic acid]
Relative activity against the aggregation of human thrombocytes induced by arachidonic acid (human thrombocytes; in-vitro): 1.2

SMILES: CCCCC[C@H](O)/C=C/[C@@H]1[C@H]2C/C(=C/CCCC(=O)O)O[C@H]2C[C@H]1O [Prostacyclin, prostacyclin]
Stability [4]: not as stable as would be desirable | Relation of platelet aggregation inhibiting to blood pressure lowering dosage [5]: exhibited at generally the same dosage level | Duration of aggregation inhibiting and blood pressure lowering activities [6]: only for a short time

Chemical stability (Chemical stability): chemically stable | IC50 (human thrombocytes; human thrombocytes, induced by arachidonic acid, in-vitro, read-out: IC50, inhibition of platelet aggregation): 0.18 µM
SMILES: CCCCCC(O)C=CC1C(O)CC2OC(CCCCC(=O)O)CC21 (stereo not shown) [5,6-Dihydroprostacyclin, 5,6-dihydroprostacyclin, reference compound]
Maximum effect % Blood pressure lowering (blood pressure; 0.0215 mg/kg intravenous): 28% | Effect in relation to maximum effect, 10 min. after administration (blood pressure lowering) (blood pressure; 0.0215 mg/kg intravenous): 7.1% | Effect in relation to maximum effect, 30 min. after administration (blood pressure lowering) (blood pressure; 0.0215 mg/kg intravenous): 0% | ED20, blood pressure lowering (blood pressure; conscious spontaneous hypertensive rats, intravenous, in-dwelling catheter): 5 µg/kg | Relative blood pressure lowering activity (blood pressure; [7]): 1.0 | Index of selectivity [1]: 1.0 | Relation of platelet aggregation inhibiting to blood pressure lowering dosage ([1]; rat, in vivo): produces both these effects at the same dosage range | Relative contraction inducing activity (isolated rat uterus): 26.1% | Maximum effect % Aggregation inhibition ([2]; 0.1 mg/kg intravenous): 62.4% | Effect in relation to maximum effect, 10 min. after administration (aggregation inhibition) ([2]; 0.1 mg/kg intravenous): 33.8% | Effect in relation to maximum effect, 30 min. after administration (aggregation inhibition) ([2]; 0.1 mg/kg intravenous): 0% | Duration of aggregation inhibiting and blood pressure lowering activities ([2]; also blood pressure lowering): only for a short time | ED50, ADP induced fall in platelet count ([2]; narcotized rats (urethane), intravenous): 11.4 µg/kg | Relative activity on the ADP induced fall in platelet count in-vivo ([2]; intravenous): 1.0 | Relative contraction inducing activity (isolated rat colon): 23.8% | Relative activity against the aggregation of human thrombocytes induced by arachidonic acid (human thrombocytes; in-vitro): 1.0

SMILES: CCCCC[C@H](O)/C=C/[C@H]1[C@H](O)CC(=O)[C@@H]1C/C=C\CCCC(=O)O [PGE2]
Side effects in-vivo ([3]; administered in-vivo): may induce diarrhea and abortion | Smooth muscle contraction [3]: cause contraction of the smooth muscle of the intestine and uterus

SMILES: CCCCC(CC)[C@H](O)/C=C/[C@@H]1[C@H]2C/C(=C/c3cccc(C(=O)O)c3)O[C@H]2C[C@H]1O (stereo partly drawn) [Example 4b, Sodium salt of [(5Z, 13E, 9α, 11α, 15S, 16RS)-2,3,4-trinor-1,5-inter-m-phenylene-6,9-epoxy-11,15-dihydroxy-16-ethyl]-prosta-5,13-dienoic acid]
Maximum effect % Blood pressure lowering (blood pressure; 1.0 mg/kg intravenous): 22% | Effect in relation to maximum effect, 10 min. after administration (blood pressure lowering) (blood pressure; 1.0 mg/kg intravenous): 90.9% | Effect in relation to maximum effect, 30 min. after administration (blood pressure lowering) (blood pressure; 1.0 mg/kg intravenous): 68.2% | Relative blood pressure lowering activity (blood pressure; [7]): 0.012 | Index of selectivity [1]: 16.7 | Maximum effect % Aggregation inhibition ([2]; 1.0 mg/kg intravenous): 66.8% | Effect in relation to maximum effect, 10 min. after administration (aggregation inhibition) ([2]; 1.0 mg/kg intravenous): 45.4% | Effect in relation to maximum effect, 30 min. after administration (aggregation inhibition) ([2]; 1.0 mg/kg intravenous): 24.5% | Relative activity on the ADP induced fall in platelet count in-vivo ([2]; intravenous): 0.2 | Relative activity against the aggregation of human thrombocytes induced by arachidonic acid (human thrombocytes; in-vitro): 0.31

SMILES: CCCCC[C@](C)(O)/C=C/[C@@H]1[C@H]2C/C(=C\c3cccc(C(=O)O)c3)O[C@H]2C[C@H]1O [1e)ii), Sodium salt of [(5E, 13E, 9α, 11α, 15S)-2,3,4-trinor-1,5-inter-m-phenylene-6,9-epoxy-11,15-dihydroxy-15-methyl]-prosta-5,13-dienoic acid]
Relative blood pressure lowering activity (blood pressure; [7]): 0.014 | Index of selectivity [1]: 69.3 | Relative activity on the ADP induced fall in platelet count in-vivo ([2]; intravenous): 0.97 | Relative activity against the aggregation of human thrombocytes induced by arachidonic acid (human thrombocytes; in-vitro): 0.25

SMILES: O=C(O)c1cccc(/C=C2/C[C@@H]3[C@@H](/C=C/[C@@H](O)C4CCCCC4)[C@H](O)C[C@@H]3O2)c1 [Example 3b, Sodium salt of [(5Z, 13E, 9α, 11α, 15S)-2,3,4-trinor-1,5-inter-m-phenylene-6,9-epoxy-11,15-dihydroxy-15-cyclohexyl-16,17,18,19,20-pentanor]-prosta-5,13-dienoic acid]
Maximum effect % Blood pressure lowering (blood pressure; 0.1 mg/kg intravenous): 23% | Effect in relation to maximum effect, 10 min. after administration (blood pressure lowering) (blood pressure; 0.1 mg/kg intravenous): 87.0% | Effect in relation to maximum effect, 30 min. after administration (blood pressure lowering) (blood pressure; 0.1 mg/kg intravenous): 39.1% | Relative blood pressure lowering activity (blood pressure; [7]): 0.25 | Index of selectivity [1]: 20.0 | Maximum effect % Aggregation inhibition ([2]; 0.1 mg/kg intravenous): 72.5% | Effect in relation to maximum effect, 10 min. after administration (aggregation inhibition) ([2]; 0.1 mg/kg intravenous): 62.6% | Effect in relation to maximum effect, 30 min. after administration (aggregation inhibition) ([2]; 0.1 mg/kg intravenous): 66.3% | Activity compared with 5,6-dihydroprostacyclin, in-vivo ([2]; in-vivo (Table 1b)): several times more active than 5,6-dihydroprostacyclin | Relative activity on the ADP induced fall in platelet count in-vivo ([2]; intravenous): 5.0 | Activity compared with 5,6-dihydroprostacyclin, in-vitro (human thrombocytes; in-vitro (Table 1a)): several times more active than 5,6-dihydroprostacyclin | Relative activity against the aggregation of human thrombocytes induced by arachidonic acid (human thrombocytes; in-vitro): 18.0

SMILES: CCCCC[C@H](O)/C=C/[C@@H]1[C@H]2C/C(=C/c3cccc(C(=O)O)c3)O[C@H]2C[C@H]1O [Example 2b, Sodium salt of [(5Z, 13E, 9α, 11α,15S)-2,3,4-trinor-1,5-inter-m-phenylene-6,9-epoxy-11,15-dihydroxy]prosta-5,13-dienoic acid]
Relative activity against the aggregation of human thrombocytes induced by arachidonic acid (human thrombocytes; in-vitro): 1.2
